Experimental data published in patent US20210062178A1, “NOVEL XYLOSE ISOMERASE GENE AND POLYPEPTIDE AND USES THEREOF” (The Regents of the University of California, priority 2019, published 2021).

Tested on: new D-xylose isomerase (XI) 8454_2 from the gut of Odontotaenius disjunctus, SEQ ID NO: 2
Experiment: Enzymatic activity of xylose isomerase in crude cell extracts, coupled sorbitol dehydrogenase (SDH) assay, NADH depletion at 340 nm
Format: biochemical
Experimental: This clone was then was cultivated in liquid medium containing xylose as the sole carbon source in parallel with an identical clone carrying the same metabolic pathway, but instead expressing a XI from Piromyces sp (opt.PiXI). Opt.PiXI is a codon-optimized version of the XI gene from Piromyces sp.
Specific enzymatic activity was measured using a coupled enzyme (sorbitol dehydrogenase—SDH) that converts the product of XI (xylulose) into xylitol. In this process, for each molecule of xylose converted to xylulose, a molecule of NADH is converted in NAD+. NADH depletion is quantified by spectrophotometry at an optical density of 340 nm, and XI activity is stoichiometrically inferred. For the enzymatic activity, crude cell extracts were prepared using the same conditions for both strains (carrying 8454_2 or opt.PiXI genes) and immediately used.

`OC1OC[C@@H](O)[C@H](O)[C@H]1O` (stereo partly drawn) [D-xylose] was tested, and the “isomerization maximal velocity (Vmax) relative to the XI from Piromyces sp.” value (compared with XI from Piromyces sp. (opt.PiXI) under identical biological backgrounds and experimental conditions) was “three times higher” and the Km (new XI, expressed in S. cerevisiae) was 19 mM.
